These are literature values, as cited in patent US20050244461A1, “Controlled release drug delivery systems and methods for treatment of an eye” (Allergan, Inc., priority 2004, published 2005).

For the series the following is noted: in vivo efficacy; 25 mg hydrocortisone equivalent to 1 mg dexamethasone; Goodman and Gilman.

Molecules are shown by their SMILES.

With `C[C@]12CCC(=O)C=C1CC[C@@H]1[C@@H]2[C@@H](O)C[C@@]2(C)[C@H]1CC[C@]2(O)C(=O)CO` [hydrocortisone], the “Potency relative to dexamethasone” value is reported as “approximately twentyfivefold less potent than dexamethasone”.
